Measurements as given in patent publication US20220289787A1, “DIMER COMBINATIONS AND USES THEREOF” (Ripple Therapeutics Corporation, priority 2019, published 2022).

Experiment: Drug release from heat-molded pellets of Compound 1 in PBS at 37° C. (HPLC)
Assay type: physicochemical
Conditions: FIG. 2
Experimental: Heat-molded pellets from Compound 1 (^˜1 mm×1 mm) were placed in 20 mL glass vials and 2 mL of the release buffer phosphate buffered saline (PBS) was added.

C[C@@H]1C[C@H]2[C@@H]3CCC4=CC(=O)C=C[C@]4(C)[C@@]3(F)[C@@H](O)C[C@]2(C)[C@@]1(O)C(=O)COC(=O)OCCOCCOCCOC(=O)OCC(=O)[C@@]1(O)[C@H](C)C[C@H]2[C@@H]3CCC4=CC(=O)C=C[C@]4(C)[C@@]3(F)[C@@H](O)C[C@@]21C [Compound 1, dexamethasone-triethylene glycol-dexamethasone]
dexamethasone release profile (cumulative drug release) (heat-molded pellets ~1 mm×1 mm): zero-order (e.g., near zero order) release
duration of zero-order release (heat-molded pellets): at least 100 days
